Measurements taken from patent US7932272B2, “Antifungal agent containing heterocyclic compound” (Eisai R&D Management Co., Ltd., priority 2003, dated 2011).
Converted amounts (≈) assume the structure as drawn.

Tests used:
[1] = tested on: C. albicans E81022 strain; assay: Experimental systemic candida infection model in mice; type: in vivo, female ICR mice; conditions: C. albicans i.v. infection, 2.5 mg/kg peroral 3 times every 4 hours, observed until 14 days after infection
Method: A standing culture of C. albicans E81022 strain was carried out for 48 hours at 30° C. in Sabouraud dextrose agar medium (SDA), the recovered fungal cells were suspended in sterilized physiological saline. By counting the fungal number on a cytometry plate, the suspension was diluted to 2×10^7 cells/ml with sterilized physiological saline to serve as fungal inoculum.
The fungal inoculum was used in the amounts of 0.2 ml to inoculate 4.5 to 5.5 week-old female ICR mice in the tail vein (4×10^6 cells/mouse).
From 0.5 to 1 hour after fungal inoculation, 0.2 ml of agent solution (dissolved or suspended in sterilized physiological saline containing 6.5% dimethylsulfoxide and 3.5% Tween 80) was administered into the stomach using a peroral probe, 3 times every 4 hours. The agent concentration was 2.5 mg/kg, and the number of animals in one group was 5 animals.
(§1) The protective effect was determined by observing life/death until 14 days after infection and calculating the mean survival days.

[2] = tested on: C. albicans E81022 strain; assay: Anti-Candida activity (MIC measurement); type: cell-based; conditions: E81022STRAIN, MIC by visual inspection, C. albicans E81022, 48 hours at 30 to 35° C.
Method: (§2) For the C. albicans E81022 strain, a fungal suspension from a standing culture for 48 hours at 30° C. in a Sabouraud dextrose liquid culture medium (SDB) was diluted 10,000-fold with a 1.3-fold concentrated SDB to adjust to a fungal suspension of 1 to 2×10^4 cells/ml. For the A. fumigatus Tsukuba strain, −80° C. stored strain was diluted 1,000-fold with a 1.3-fold concentrated SDB to adjust to a fungal suspension of 2 to 3×10^3 cells/ml.
(§3) Using a U-bottomed 96 well plate, 8 samples/plate (A to H) of sample dilution solutions were prepared. On the 3rd row of each plate was dispensed 240 μl of sterilized and distilled water, and on the 2nd and 4th to 12th rows were dispensed 125 μl of 4% dimethylsulfoxide solution. Weighed sample was dissolved in dimethylsulfoxide to prepare a 2.5 to 20 mg/ml solution, 10 μl of this solution was then added to the 3rd row of the prepared plate, and 10 steps of two-fold step dilutions (125 μl of solution+125 μl of 4% dimethylsulfoxide) were performed on the plate.
(§4) The fungal suspension preprared in (1) was used in the amount of 75 μl/well to inoculate a V-bottomed or flat-bottomed 96 well plate containing 25 μl/well of test compound dilution solution prepared in (2), and a standing culture was carried out aerobically for 48 hours at 30 to 35° C.

[3] = tested on: A. fumigatus Tsukuba strain; assay: Anti-Aspergillus activity (MIC measurement); type: cell-based; conditions: MIC by visual inspection, 48 hours at 30 to 35° C.
Method: as §2, §3, §4

[4] = tested on: A. fumigatus Tsukuba strain; assay: Experimental respiratory aspergillus infection model in mice; type: in vivo, female DBA/2N mice; conditions: 5-fluorouracil-treated mice, A. fumigatus nasal infection, 20 or 40 mg/kg peroral 3 times per day for 3 days, observed until 14 days after infection
Method: In order to increase susceptibility of the mice to infection, 200 mg/kg of 5-fluorouracil was administered subcutaneously 6 days prior to infection.
A. fumigatus Tsukuba strain was used.
A spore suspension of the infection strain was used to coat a potato dextrose agar medium (PDA), a standing culture was carried out for 4 to 7 days at 35° C., spore was then suspended in a sterilized physiological saline containing 0.05% Tween 80. By counting the pore count on a cytometry plate, the suspension was diluted to 6×10^5 cells/ml with sterilized physiological saline containing 0.05% Tween 80 to serve as fungal inoculum.
Under ketalar anesthesia, 50 μl of fungal inoculum was used to inoculate 8 to 9 week-old female DBA/2N mice in the nose (3×10^4 cells/mouse).
From 1 hour after fungal inoculation, 0.2 ml of agent solution (dissolved or suspended in sterilized physiological saline containing 6.5% DMSO and 3.5% Tween 80), was administered into the stomach using a peroral probe 3 times per day for 3 days. The agent dosage was from 20 or 40 mg/kg, and the number of animals in one group was 5 animals.
as §1

| Compound | Mean Survival Days [1] | MIC [2] | MIC [3] | Mean Survival Days [4] |
| --- | --- | --- | --- | --- |
| Nc1ccc(C(=O)NCc2ccc(OCc3ccccc3)cc2)c(N)n1 [Example A-10, 2,6-Diamino-N-(4-benzyloxy-benzyl)-nicotinamide] | 12.5 days | 0.78 µg/mL (≈ 2.24 µM) | 1.56 µg/mL (≈ 4.48 µM) | – |
| Nc1ccc(C(=O)NCc2ccc(OCc3ccccc3F)cc2)c(N)n1 [Example A-11, 2,6-Diamino-N-(4-(2-fluoro-benzyloxy)-benzyl)-nicotinamide] | – | – | – | 10.4 days |
| COCc1ccc(C(=O)NCc2ccc(OCc3ccccn3)cc2)c(N)n1 [Example A-31, 2-Amino-6-methoxymethyl-N-(4-(pyridin-2-ylmethoxy)-benzyl)-nicotinamide] | – | – | – | 11.2 days |
| COCc1ccc(C(=O)NCc2ccc(OCc3ccc(F)cc3)cc2)c(N)n1 [Example A-32, 2-Amino-N-(4-(4-fluoro-benzyloxy)-benzyl)-6-methoxymethyl-nicotinamide] | – | – | – | 11.8 days |
| Nc1ccc(C(=O)NCc2ccc(Oc3ccc(F)cc3)s2)c(N)n1 [Example A-53, 2,6-Diamino-N-(5-(4-fluoro-phenoxy)-thiophen-2-ylmethyl)-nicotinamide] | 13.4 days | 0.39 µg/mL (≈ 1.09 µM) | 0.78 µg/mL (≈ 2.18 µM) | – |
| Nc1ccc(C(=O)NCc2ccc(Oc3ccccc3)s2)c(N)n1 [Example A-54, 2,6-diamino-N-(5-phenoxy-thiophene-2-ylmethyl)-nicotinamide] | 10.0 days | 0.78 µg/mL (≈ 2.29 µM) | 1.56 µg/mL (≈ 4.58 µM) | – |
| Nc1ccc(C(=O)NCc2ccc(Cc3ccccc3)s2)c(N)n1 [Example A-55, 2,6-Diamino-N-(5-benzyl-thiophen-2-ylmethyl)-nicotinamide] | – | – | – | 12.6 days |
| Nc1ccc(C(=O)NCc2ccc(OCc3ccccc3)s2)c(N)n1 [Example A-56, 2,6-Diamino-N-(5-benzyloxy-thiophen-2-ylmethyl)-nicotinamide] | – | – | – | 10.8 days |
| Nc1ncccc1C(=O)NCc1ccc(Oc2cccc(F)c2)s1 [Example A-68, 2-Amino-N-(5-(3-fluoro-phenoxy)-thiophen-2-ylmethyl)-nicotinamide] | 10.6 days | 0.05 µg/mL (≈ 0.146 µM) | 0.78 µg/mL (≈ 2.27 µM) | – |
| Nc1ncccc1C(=O)NCc1ccc(Cc2ccccc2)s1 [Example A-70, 2-Amino-N-(5-benzyl-thiophen-2-ylmethyl)-nicotinamide] | 12.6 days | 0.05 µg/mL (≈ 0.155 µM) | 0.78 µg/mL (≈ 2.41 µM) | – |
| Nc1ccc(C(=O)NCc2ccc(Oc3cccc(F)c3)s2)cn1 [Example A-137, 6-Amino-N-(5-(3-fluorophenoxy)thiophen-2-ylmethyl)nicotinamide] | 12.8 days | 1.56 µg/mL (≈ 4.54 µM) | – | – |
| O=C(NCc1ccn(Cc2cccc(F)c2)c1)c1ccc2ncccc2n1 [Example D-4, [1,5]Naphthylidine-2-carboxylic acid (1-(3-fluoro-benzyl)-1H-pyrrol-3-ylmethyl)-amide] | – | – | – | 10.8 days |
| O=C(NCc1ccc(Oc2ccc(F)cc2)s1)c1ccc2ncccc2n1 [Example D-7, [1,5]Naphthylidine-2-carboxylic acid (5-(4-fluoro-phenoxy)-thiophen-2-ylmethyl)-amide] | – | – | – | 10.6 days |
| O=C(NCc1ccc(Oc2cccc(F)c2)s1)c1ccc2ncccc2c1 [Example E-65, Quinoline-6-carboxylic acid (5-(3-fluorophenoxy)thiophen-2-ylmethyl) amide] | 11.6 days | 0.1 µg/mL (≈ 0.264 µM) | 1.56 µg/mL (≈ 4.12 µM) | – |
| O=C(NCc1ccc(Oc2ccccc2)s1)c1cnc2[nH]ccc2c1 [Example R-1, 1H-Pyrrolo[2,3-b]pyridine-5-carboxylic acid (5-phenoxy-thiophen-2-ylmethyl)-amide] | 10.4 days | 0.39 µg/mL (≈ 1.12 µM) | 3.13 µg/mL (≈ 8.96 µM) | – |
| Nc1nc(NCc2ccc(OCc3ccccc3)cc2)c2cccnc2n1 [Example Y-1, N*4*-(4-Benzyloxy-benzyl)-pyrido[2,3-d]pyrimidine-2,4-diamine] | – | 0.78 µg/mL (≈ 2.18 µM) | 6.25 µg/mL (≈ 17.5 µM) | – |
